# In patent publication US5905187A (priority 1997, dated 1999):
# Entries after “also recorded” stand apart in the source; their conditions may differ. No end group written: not given here.
# What was measured:
# Type in all cases: cell-based
# plant pathogenic fungi = tested on: plant pathogenic fungi
# Sclerotinia sclerotiorum = tested on: Sclerotinia sclerotiorum
# Fusarium moniliforme = tested on: Fusarium moniliforme
# Sclerotinia trifoliorum = tested on: Sclerotinia trifoliorum
# Fusarium graminearum = tested on: Fusarium graminearum
# Aspergillus flavus = tested on: Aspergillus flavus
# Alternaria longipes = tested on: Alternaria longipes
sequence,measurement,setting,value
RSGRGECRRQCLRRHEGQPWETQECMRRCRRRGG (cysteine pairing not given here) [CMIII],CMIII activity in the presence of plant cell extracts,plant pathogenic fungi,reduced substantially
same,concentrations at which inhibition of S. sclerotiorum was not observed,Sclerotinia sclerotiorum,below 30.4 micromolar
same,inhibition of Sclerotinia isolates (S. sclerotiorum),Sclerotinia sclerotiorum,inhibited strongly
same,inhibition of Sclerotinia sclerotiorum,Sclerotinia sclerotiorum,inhibitory activity
same,concentration down to which Fusarium moniliforme was noticeably inhibited,Fusarium moniliforme,3.8 µM
same,inhibition of Fusarium moniliforme,Fusarium moniliforme,slightly inhibited; also recorded: not completely inhibited
same,concentrations at which inhibition of S. trifoliorum was not observed,Sclerotinia trifoliorum,below 15.2 micromolar
same,inhibition of Sclerotinia isolates (S. trifoliorum),Sclerotinia trifoliorum,inhibited strongly
same,inhibition of Sclerotinia trifoliorum,Sclerotinia trifoliorum,inhibitory activity
same,inhibition of Fusarium graminearum,Fusarium graminearum; at a concentration of 112 μg/mL,inhibitory activity
same,concentration down to which Fusarium graminearum was noticeably inhibited,Fusarium graminearum; other studies,3.8 µM
same,inhibition of Aspergillus flavus,Aspergillus flavus,slightly inhibited; also recorded: slight inhibition
same,effect on A. longipes,"Alternaria longipes; at 3 μM, yet another study",not affected
same,concentration showing noticeable inhibition of Alternaria longipes,"Alternaria longipes; other studies, most sensitive of the fungi",1.9 µM
